Results reported in patent US20250129031A1, “1,2,3-TRIAZOLE CARBONYL SULFONYLAMIDE COMPOUNDS AND USE THEREOF” (PI INDUSTRIES LTD., priority 2022, published 2025).

Test system: Meloidogyne incognita
Test: Meloidogyne incognita test: gall rating on cucumber plants in pots after soil application
Format: in vivo
Parameters: key: 0: no galls; 1: very few small galls; 2: numerous small galls; 3: numerous small galls of which some are grown together; 4: numerous small and some big galls; 25% of roots severely galled; 6: 50% of roots severely galled; 75% of roots severely galled; 8: no healthy roots but plant is still green; 9: roots rotting and plant dying; 10: plant and roots dead
Details: 1000 ppm applied to soil inoculated with 5000 eggs & J2s; cucumber seedlings; rated 30 days after application; 0-10 scale (Zeck 1971); untreated check up to 8
Protocol: Meloidogyne incognita Test:
The trial pots were filled with soil containing a mixture of sand:soil:cocopeat in a ratio of 1:1:1. To the soil of each pot 5 mL of a nematode suspension (Meloidogyne incognita, mix of 5000 eggs & J2s) was added. One hour later the respective test compound at the stated concentration was applied to each pot. 10 days old cucumber seedlings were transplanted into the pots one day after the application. The cucumber plants were allowed to grow at a temperature of 27° C. under greenhouse conditions. The evaluation of the gall rating was recorded 30 days after the application. The plants were carefully uprooted and the roots were thoroughly washed. The gall rating was done on a 0-10 scale as described by Zeck (1971) and shown below: • 0=no galls • 1=very few small galls • 2=numerous small galls • 3=numerous small galls of which some are grown together • 4=numerous small and some big galls • 5=25% of roots severely galled • 6=50% of roots severely galled • 7=75% of roots severely galled • 8=no healthy roots but plant is still green • 9=roots rotting and plant dying • 10=plant and roots dead

SMILES: COc1ccc(Cl)c(S(=O)(=O)NC(=O)c2nnn(-c3ccc(Cl)cc3Cl)c2C)c1 [Compound 56]
- gall rating scale: 4

SMILES: Cc1c(C(=O)NS(=O)(=O)c2ccccc2C(F)(F)F)nnn1-c1ccc(OC(F)F)cc1Cl [Compound 669]
- gall rating scale: 4

SMILES: Cc1c(C(=O)NS(=O)(=O)c2cc(C(F)(F)F)ccc2Cl)nnn1-c1ccc(C#N)cc1Cl [Compound 315]
- gall rating scale: 4

SMILES: N#Cc1ccc(-n2nnc(C(=O)NS(=O)(=O)c3cc(C(F)(F)F)ccc3C(F)(F)F)c2C(F)(F)F)c(Cl)c1 [Compound 390, N-((2,5-bis(trifluoromethyl)phenyl)sulfonyl)-1-(2-chloro-4-cyanophenyl)-5-(trifluoromethyl)-1H-1,2,3-triazole-4-carboxamide]
- gall rating scale: 4

SMILES: COc1ccc(Cl)c(S(=O)(=O)NC(=O)c2nnn(-c3ccc(Cl)cc3F)c2C(F)(F)F)c1 [Compound 630]
- gall rating scale: 4

SMILES: Cc1c(C(=O)NS(=O)(=O)c2cc(Cl)ccc2Cl)nnn1-c1ccc(C#N)cc1F [Compound 410]
- gall rating scale: 4

SMILES: Cc1c(C(=O)NS(=O)(=O)c2cc(C(F)(F)F)ccc2Br)nnn1-c1ccc(Cl)cc1F [Compound 432]
- gall rating scale: 4

SMILES: Cc1c(C(=O)NS(=O)(=O)c2ccccc2Cl)nnn1-c1ccc(F)cc1F [Compound 689]
- gall rating scale: 4

SMILES: Cc1c(C(=O)NS(=O)(=O)c2cc(C(F)(F)F)ccc2Cl)nnn1-c1ccc(Cl)cc1Cl [Compound 33]
- gall rating scale: 4

SMILES: Cc1c(C(=O)NS(=O)(=O)c2ccccc2Cl)nnn1-c1ccc(C#N)cc1Cl [Compound 272]
- gall rating scale: 4

SMILES: Cc1ccc(C)c(S(=O)(=O)NC(=O)c2nnn(-c3ccc(C#N)cc3Cl)c2C)c1 [Compound 328]
- gall rating scale: 4

SMILES: COc1ccc(Cl)c(S(=O)(=O)NC(=O)c2nnn(-c3ccc(C#N)cc3Cl)c2C)c1 [Compound 260]
- gall rating scale: 4

SMILES: Cc1c(C(=O)NS(=O)(=O)c2ccccc2C(F)(F)F)nnn1-c1cc(Cl)ccc1Cl [Compound 259, 1-(2,5-dichlorophenyl)-5-methyl-N-((2-(trifluoromethyl)phenyl)sulfonyl)-1H-1,2,3-triazole-4-carboxamide]
- gall rating scale: 4

SMILES: Cc1ccc(C)c(S(=O)(=O)NC(=O)c2nnn(-c3ccc(C#N)cc3F)c2C(F)(F)F)c1 [Compound 536, 1-(4-cyano-2-fluorophenyl)-N-((2,5-dimethylphenyl)sulfonyl)-5-(trifluoromethyl)-1H-1,2,3-triazole-4-carboxamide]
- gall rating scale: 4

SMILES: Cc1c(C(=O)NS(=O)(=O)c2ccc(F)cc2F)nnn1-c1ccc(Cl)cc1Cl [Compound 279, 1-(2,4-dichlorophenyl)-N-((2,4-difluorophenyl)sulfonyl)-5-methyl-1H-1,2,3-triazole-4-carboxamide]
- gall rating scale: 4

SMILES: COc1ccc(Cl)c(S(=O)(=O)NC(=O)c2nnn(-c3ccc(OC(F)(F)F)cc3Cl)c2C2CC2)c1 [Compound 230, 1-(2-chloro-4-(trifluoromethoxy)phenyl)-N-((2-chloro-5-methoxyphenyl)sulfonyl)-5-cyclopropyl-1H-1,2,3-triazole-4-carboxamide]
- gall rating scale: 4

SMILES: O=C(NS(=O)(=O)c1cc(C(F)(F)F)ccc1Cl)c1nnn(-c2ccc(C(F)(F)F)cc2Cl)c1C(F)(F)F [Compound 76]
- gall rating scale: 4

SMILES: COc1ccc(Cl)cc1S(=O)(=O)NC(=O)c1nnn(-c2ccc(Cl)cc2Cl)c1C(F)(F)F [Compound 598]
- gall rating scale: 4

SMILES: Cc1c(C(=O)NS(=O)(=O)c2cc(C(F)(F)F)ccc2Cl)nnn1-c1ccc(OC(F)F)cc1Cl [Compound 665]
- gall rating scale: 4

SMILES: O=C(NS(=O)(=O)c1ccccc1OC(F)(F)F)c1nnn(-c2cc(Cl)ccc2Cl)c1C(F)(F)F [Compound 370, 1-(2,5-dichlorophenyl)-N-((2-(trifluoromethoxy)phenyl)sulfonyl)-5-(trifluoromethyl)-1H-1,2,3-triazole-4-carboxamide]
- gall rating scale: 4

SMILES: Cc1ccccc1S(=O)(=O)NC(=O)c1nnn(-c2ccc(C#N)cc2Cl)c1C(F)(F)F [Compound 396, 1-(2-chloro-4-cyanophenyl)-N-(o-tolylsulfonyl)-5-(trifluoromethyl)-1H-1,2,3-triazole-4-carboxamide]
- gall rating scale: 4

SMILES: Cc1c(C(=O)NS(=O)(=O)c2cc(Cl)ccc2Cl)nnn1-c1ccc(OC(F)(F)F)cc1Cl [Compound 134, 1-(2-chloro-4-(trifluoromethoxy)phenyl)-N-((2,5-dichlorophenyl)sulfonyl)-5-methyl-1H-1,2,3-triazole-4-carboxamide]
- gall rating scale: 4

SMILES: Cc1c(C(=O)NS(=O)(=O)c2cc(C(F)(F)F)ccc2C(F)(F)F)nnn1-c1ccc(F)cc1F [Compound 690]
- gall rating scale: 4

SMILES: COc1ccc(Cl)c(S(=O)(=O)NC(=O)c2nnn(-c3ccc(Cl)cc3C(F)(F)F)c2C)c1 [Compound 61]
- gall rating scale: 4

SMILES: COc1ccc(C)cc1S(=O)(=O)NC(=O)c1nnn(-c2ccc(OC(F)(F)F)cc2Cl)c1C [Compound 587]
- gall rating scale: 4

SMILES: Cc1c(C(=O)NS(=O)(=O)c2ccccc2C(F)(F)F)nnn1-c1ccc(F)cc1Cl [Compound 245]
- gall rating scale: 4

SMILES: N#Cc1ccc(-n2nnc(C(=O)NS(=O)(=O)c3cc(Cl)c(F)cc3F)c2C(F)(F)F)c(F)c1 [Compound 610, N-((5-chloro-2,4-difluorophenyl)sulfonyl)-1-(4-cyano-2-fluorophenyl)-5-(trifluoromethyl)-1H-1,2,3-triazole-4-carboxamide]
- gall rating scale: 4

SMILES: Cc1c(C(=O)NS(=O)(=O)c2cc(Cl)ccc2F)nnn1-c1ccc(C#N)cc1Cl [Compound 497]
- gall rating scale: 4

SMILES: Cc1c(C(=O)NS(=O)(=O)c2ccc(F)cc2F)nnn1-c1cc(Cl)c(Cl)cc1Cl [Compound 683]
- gall rating scale: 4

SMILES: O=C(NS(=O)(=O)c1cc(C(F)(F)F)ccc1Cl)c1nnn(-c2ccc(Cl)cc2F)c1C(F)(F)F [Compound 631]
- gall rating scale: 4

SMILES: Cc1c(C(=O)NS(=O)(=O)c2ccc(F)cc2)nnn1-c1cc(Cl)cc(Cl)c1 [Compound 25]
- gall rating scale: 4

SMILES: Cc1c(Cl)cccc1S(=O)(=O)NC(=O)c1nnn(-c2ccc(C#N)cc2Cl)c1C [Compound 513]
- gall rating scale: 4

SMILES: CCc1c(C(=O)NS(=O)(=O)c2cc(C)ccc2C)nnn1-c1ccc(OC(F)(F)F)cc1Cl [Compound 337, 1-(2-chloro-4-(trifluoromethoxy)phenyl)-N-((2,5-dimethylphenyl)sulfonyl)-5-ethyl-1H-1,2,3-triazole-4-carboxamide]
- gall rating scale: 4

SMILES: Cc1ccc(F)cc1S(=O)(=O)NC(=O)c1nnn(-c2ccc(OC(F)(F)F)cc2Cl)c1C [Compound 588]
- gall rating scale: 4

SMILES: Cc1c(C(=O)NS(=O)(=O)c2ccccc2C(F)(F)F)nnn1-c1ccc(C#N)cc1Cl [Compound 271]
- gall rating scale: 4

SMILES: Cc1c(C(=O)NS(=O)(=O)c2cc(F)ccc2F)nnn1-c1ccc(C#N)cc1Cl [Compound 269]
- gall rating scale: 4

SMILES: CCc1c(C(=O)NS(=O)(=O)c2cc(OC)ccc2Cl)nnn1-c1ccc(OC(F)(F)F)cc1Cl [Compound 336, 1-(2-chloro-4-(trifluoromethoxy)phenyl)-N-((2-chloro-5-methoxyphenyl)sulfonyl)-5-ethyl-1H-1,2,3-triazole-4-carboxamide]
- gall rating scale: 4

SMILES: O=C(NS(=O)(=O)c1cc(C(F)(F)F)ccc1Cl)c1nnn(-c2ccc(F)cc2Cl)c1C(F)(F)F [Compound 364, 1-(2-chloro-4-fluorophenyl)-N-((2-chloro-5-(trifluoromethyl)phenyl)sulfonyl)-5-(trifluoromethyl)-1H-1,2,3-triazole-4-carboxamide]
- gall rating scale: 4
